Experimental data: PubChem BioAssay AID2060361 (Molecular Pharmacology Branch, DTP, NCI, 2025)

Test system: 463943-066-T-J2-PDC tumor spheroids with HUVEC/MSC, viability
Assay: Anticancer human tumor 463943-066-T-J2-PDC patient-derived colon adenocarcinoma cell line growth inhibition [TAK]
Conditions: for IC50: curve of first compound; for viability, T/C: stronger effect = lower value
Outline: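 Tumor cells were grown as spheroids with HUVEC and hMSC (60:25:15) and treated with targeted agents combined with TAK-243 or ipatasertib. Drugs were tested in half-log steps down from near the clinical Cmax, or from 10 microM where Cmax was unknown.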

[1] = second compound 0.3 µM, first compound 0.0316 µM
[2] = second compound 0.3 µM, first compound 0.1 µM
[3] = second compound 0.949 µM, first compound 0.0316 µM
[4] = second compound 0.949 µM, first compound 0.1 µM
[5] = second compound 3 µM, first compound 0.0316 µM
[6] = second compound 3 µM, first compound 0.1 µM
[7] = second compound 9.49 µM, first compound 0.0316 µM
[8] = second compound 9.49 µM, first compound 0.1 µM
[9] = second compound 30 µM, first compound 0.0316 µM
[10] = second compound 30 µM, first compound 0.1 µM
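Note: spheroids exposed to drugs for seven days.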
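Throughout, for viability, T/C: 100% = DMSO vehicle control wells.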

CC(C)(C)c1nc(-c2cccc(NS(=O)(=O)c3c(F)cccc3F)c2F)c(-c2ccnc(N)n2)s1 + CC(C)NCC(C(=O)N1CCN(c2ncnc3c2C(C)CC3O)CC1)c1ccc(Cl)cc1
IC50 (second compound 0.3 µM): > 10 µM
IC50 (second compound 0.949 µM): > 10 µM
IC50 (second compound 3 µM): > 10 µM
IC50 (second compound 9.49 µM): > 10 µM
IC50 (second compound 30 µM): > 10 µM
viability, T/C [1]: 110%
viability, T/C [2]: 111%
viability, T/C (second compound 0.3 µM, first compound 0.316 µM): 107%
viability, T/C (second compound 0.3 µM, first compound 1 µM): 112%
viability, T/C (second compound 0.3 µM, first compound 3.16 µM): 100%
viability, T/C (second compound 0.3 µM, first compound 10 µM): 92.5%
viability, T/C [3]: 115%
viability, T/C [4]: 111%
viability, T/C (second compound 0.949 µM, first compound 0.316 µM): 105%
viability, T/C (second compound 0.949 µM, first compound 1 µM): 111%
viability, T/C (second compound 0.949 µM, first compound 3.16 µM): 103%
viability, T/C (second compound 0.949 µM, first compound 10 µM): 88.3%
viability, T/C [5]: 99%
viability, T/C [6]: 109%
viability, T/C (second compound 3 µM, first compound 0.316 µM): 92.2%
viability, T/C (second compound 3 µM, first compound 1 µM): 102%
viability, T/C (second compound 3 µM, first compound 3.16 µM): 110%
viability, T/C (second compound 3 µM, first compound 10 µM): 101%
viability, T/C [7]: 100%
viability, T/C [8]: 111%
viability, T/C (second compound 9.49 µM, first compound 0.316 µM): 99.2%
viability, T/C (second compound 9.49 µM, first compound 1 µM): 109%
viability, T/C (second compound 9.49 µM, first compound 3.16 µM): 107%
viability, T/C (second compound 9.49 µM, first compound 10 µM): 104%
viability, T/C [9]: 91%
viability, T/C [10]: 98.6%
viability, T/C (second compound 30 µM, first compound 0.316 µM): 100%
viability, T/C (second compound 30 µM, first compound 1 µM): 97.2%
viability, T/C (second compound 30 µM, first compound 3.16 µM): 104%
viability, T/C (second compound 30 µM, first compound 10 µM): 91.1%

CC(C)CC(NC(=O)CNC(=O)c1cc(Cl)ccc1Cl)B1OC(=O)CC(CC(=O)O)(C(=O)O)O1 (stereo not given) + CC(C)NCC(C(=O)N1CCN(c2ncnc3c2C(C)CC3O)CC1)c1ccc(Cl)cc1
IC50 (second compound 0.3 µM): > 0.1 µM
IC50 (second compound 0.949 µM): > 0.1 µM
IC50 (second compound 3 µM): > 0.1 µM
IC50 (second compound 9.49 µM): > 0.1 µM
IC50 (second compound 30 µM): > 0.1 µM
viability, T/C (second compound 0.3 µM, first compound 0.000316 µM): 117%
viability, T/C (second compound 0.3 µM, first compound 0.001 µM): 107%
viability, T/C (second compound 0.3 µM, first compound 0.00316 µM): 106%
viability, T/C (second compound 0.3 µM, first compound 0.01 µM): 101%
viability, T/C [1]: 88.8%
viability, T/C [2]: 80.5%
viability, T/C (second compound 0.949 µM, first compound 0.000316 µM): 98.3%
viability, T/C (second compound 0.949 µM, first compound 0.001 µM): 102%
viability, T/C (second compound 0.949 µM, first compound 0.00316 µM): 99%
viability, T/C (second compound 0.949 µM, first compound 0.01 µM): 105%
viability, T/C [3]: 86.9%
viability, T/C [4]: 72.6%
viability, T/C (second compound 3 µM, first compound 0.000316 µM): 116%
viability, T/C (second compound 3 µM, first compound 0.001 µM): 98.9%
viability, T/C (second compound 3 µM, first compound 0.00316 µM): 95.4%
viability, T/C (second compound 3 µM, first compound 0.01 µM): 98.5%
viability, T/C [5]: 83.5%
viability, T/C [6]: 80.7%
viability, T/C (second compound 9.49 µM, first compound 0.000316 µM): 91.4%
viability, T/C (second compound 9.49 µM, first compound 0.001 µM): 123%
viability, T/C (second compound 9.49 µM, first compound 0.00316 µM): 97.2%
viability, T/C (second compound 9.49 µM, first compound 0.01 µM): 95.2%
viability, T/C [7]: 78.1%
viability, T/C [8]: 85.7%
viability, T/C (second compound 30 µM, first compound 0.000316 µM): 93.8%
viability, T/C (second compound 30 µM, first compound 0.001 µM): 99.1%
viability, T/C (second compound 30 µM, first compound 0.00316 µM): 90.6%
viability, T/C (second compound 30 µM, first compound 0.01 µM): 90.4%
viability, T/C [9]: 81.3%
viability, T/C [10]: 71.7%
